Entries after “also recorded” stand apart in the source; their conditions may differ.
How the values were obtained:
[1] = test system: deoxycorticosterone acetate (DOCA)/salt-induced model of FSGS; test: DOCA salt study: urinary isoprostane and tetranor-PGDM by LC-MS; assay type: in vivo, mice (129/sv strain); conditions: DOCA/salt mice
Description: (§1) Induction of model: Male mice (129/sv strain) were purchased from Taconic Labs. The animals were uninephrectomized (Unx) at 6 weeks of age by the vendor and shipped one week after surgery. At 2 weeks post Unx, a DOCA or placebo pellet (21-day release pellets, 50 mg/pellet, Innovative Research of America, Sarasota, Fla.) was implanted s.c. All mice were then placed on a semisynthetic diet which contained a moderate fat content and a low phytoestrogen/anti-oxidant level, which approximates a normal human diet (4). A second DOCA or placebo pellet was implanted three weeks later.
(§2) Treatment: Mice were treated with placebo, 10-nitro-9(E)-octadec-9-enoic acid at a dose of 2.5 and 12.5 mg/kg, or enalapril (standard of care) for 4 weeks by oral gavage starting 2 weeks after the first DOCA implantation. One percent NaCl in tap water was given to each group except the sham control group. Body weight was measured weekly, and doses were readjusted based on the current body weight. Urine and blood samples were collected prior to treatment and at week 2 and 4 of treatment. Mice were terminated at week 4. Data is presented as the mean+SEM for the number of animals listed in each group.
Isoprostanes are a unique series of prostaglandin-like compounds formed in vivo via a non-enzymatic mechanism involving the free radical-initiated peroxidation of arachidonic acid. It has been shown that 8-iso-PGF2a (15-F2t-isoprostane) is the isoprostane that correlates best with increasing oxidative stress. Therefore, to assess the effect of treatment on oxidative stress, this isoform was measured using LC-MS. Also measured was tetranor-PGDM, a urinary metabolite of prostaglandin D2. […] On the other hand, elevated tetranor-PGDM was lowered with treatment of 10-nitro-9(E)-octadec-9-enoic acid and enalapril at the end time point (FIG. 18).

[2] = test system: deoxycorticosterone acetate (DOCA)/salt-induced model of FSGS; test: DOCA salt study: histological assessment of kidney; assay type: in vivo, mice (129/sv strain); conditions: DOCA/salt mice, 4 weeks
Description: as §1, §2
Histological Assessment: Formalin fixed, paraffin embedded kidneys were sectioned at 3 microns and stained with hematoxylin and eosin (H&E), periodic acid-Schiff (PAS) and Masson's Trichrome for histological analysis. Slides were blindly evaluated by an experienced pathology investigator. Glomerular and tubular pathology, interstitial inflammation and interstitial fibrosis were semi-quantitatively scored on a scale of 0-4 as follows: 0=normal; 1=mild; 2=moderate; 3=marked; 4=severe.
Glomerular hypertrophy was evaluated by measuring glomerular area and expressed as a mean value of 50 glomeruli per kidney. Glomerular hypertrophy is an important marker for diabetic and hypertensive-mediated chronic kidney disease. […] This finding is consistent with unchanged gene expression profile for podocyte markers (Table 2), and seems reasonable given that the disease was relatively modest.

[3] = test system: rat model of renal ischemia/reperfusion; test: Rat model of renal ischemia/reperfusion (acute kidney injury); assay type: in vivo; conditions: rats
Description: Prevention of ischemic reperfusion injury: Studies were performed to test the effectiveness and the dose/exposure-response relationship of 10-nitro-9(E)-octadec-9-enoic acid in reducing acute kidney injury in a rat model of renal ischemia/reperfusion when administered prior to the insult. A well-established and reproducible rat model of contrast-induced nephropathy was not available. Because ischemic/reperfusion injury is a facet of contrast-induced nephropathy, it was considered a reasonable alternative. In this model, the renal arteries of the rat were clamped for 35 min, followed by reperfusion. Serum creatinine was measured daily for 72 hours. The animals were then sacrificed for tissue and terminal plasma. 10-nitro-9(E)-octadec-9-enoic acid was administered over 15 min intravenously at various doses at one hour prior to the injury. […]
10-nitro-9(E)-octadec-9-enoic acid (2.5, 12.5, and 25 mg/kg) was administered 1 hr prior to the ischemic event. Plasma samples were taken at 0, 24, 48, and 72 hr following the ischemic event, and serum creatinine levels were measured in batches using mass spectrometry to achieve precision in the results.

CCCCCCCC/C(=C\CCCCCCCC(=O)O)[N+](=O)[O-] [CXA-10, 10-nitro-9(E)-octadec-9-enoic acid]
urinary tetranor-PGDM ([1]; end time point): lowered | urinary 8-iso-PGF2a, compared with the high dose or enalapril ([1]; low dose 2.5 mg/kg, not statistically significant): trended to have a greater reduction | glomerulosclerosis: average scores and percent of glomerular damage (sclerosis) ([2]; both doses (2.5 and 12.5 mg/kg p.o. QD)): significantly reduced | glomerular hypertrophy (glomerular area, mean of 50 glomeruli per kidney) ([2]; high dose 12.5 mg/kg p.o. QD): did not have an effect | tubulointerstitial lesions ([2]; high dose 12.5 mg/kg p.o. QD): only slightly | glomerular hypertrophy (glomerular area, mean of 50 glomeruli per kidney) ([2]; low dose 2.5 mg/kg p.o. QD): reduced | tubulointerstitial lesions ([2]; low dose 2.5 mg/kg p.o. QD): improved | renal structural injury (periodic acid-Schiff staining, blinded scoring) ([3]; 12.5 mg/kg intravenously 1 hr prior to I/R injury): alleviation of injury; also recorded: preserved normal renal structure | serum creatinine following ischemia ([3]; 12.5 mg/kg intravenously 1 hr prior to ischemic event, 24 hr, p<0.01 at 24 hr only): statistically significant decrease; also recorded: significantly lowered

From US10537541B2, “Treatment of focal segmental glomerular sclerosis (FSGS) using therapeutically effective oral doses of 10-nitro-9(E)-octadec-9-enoic acid” (Complexa, Inc., priority 2015, dated 2020)
